The values that follow come from paper PMC9124699 (International Journal of Nanomedicine, 2022).

Read-outs that look alike come from different tables or passages of the source.

For data set [1] the following is noted: no reference given, cited from earlier work.
Data set [2] in a line: Degradation of LEU and L18FCs and conversion to LEU in human plasma. It is filed as in vitro ADME.
For data set [3] the following is noted: no reference given, cited from earlier work. The source holds these as a separate data set.
For data set [4] the following is noted: 1 mg intravenous administration; no reference given; cited from earlier work.

As for `CCNC(=O)[C@@H]1CCCN1C(=O)[C@H](CCCNC(=N)N)NC(=O)[C@H](CC(C)C)NC(=O)[C@@H](CC(C)C)NC(=O)[C@H](Cc1ccc(O)cc1)NC(=O)[C@H](CO)NC(=O)[C@H](Cc1c[nH]c2ccccc12)NC(=O)[C@H](Cc1c[nH]cn1)NC(=O)[C@@H]1CCC(=O)N1` [LEU, leuprolide], the “Solubility in phosphate buffered solution (PBS)” value in data set [1] (PBS, introduction statement) is reported as “approximately 10 mg/mL”. The same molecule registered a metabolised at 840 h, 1 mg/mL in data set [2] of approximately 45.8%.
By log P is commonly meant a log measure of how a compound divides between an organic and an aqueous phase. On to `CCCCC/C=C\C/C=C\CCCCCCCC(=O)O` [Linoleic acid], for which the “log P” value in data set [3] (C18 fatty acids, Table 2) is recorded as 7.05.
For `CCCCCCCC/C=C\CCCCCCCC(=O)O` [Oleic acid], the “log P” value in data set [3] (C18 fatty acids, Table 2) was 7.64.
Regarding `CCCCCCCCCCCCCCCCCC(=O)O` [Stearic acid], the log partition coefficient (log P) in data set [3] (C18 fatty acids, Table 2) is recorded as 8.23.
The Solubility is the dissolved amount per volume that the medium holds. For the molecule leuprolide acetate [LEU acetate], in data set [1] (in water), the Solubility is ≥ 66.66 mg/mL (52.51 mM) in water. In data set [3] (LEU acetate, Table 1), the “log P” value was −2.7–1.07. Also, the Half life in data set [4] is 3 h.
